Data on seven compounds can be found in US20050209288A1, “Compositions comprising (S)-amlodipine malate and an angiotensin receptor blocker and methods of their use” (priority 2004, published 2005).

Holding throughout (type): in vivo, rat
In experiment [1] the test system is rats. In words: Phase III: dose response to (S)-amlodipine malate in absence and presence of an ARB (co-administration). As to conditions: for Potential Dosage Adjustment (%) of (S)-amlodipine malate (adjustment factor): co-administration with the named ARB, relative to ED50 92 μg/kg alone; for dose response curve of ARB plus (S)-amlodipine malate relative to (S)-amlodipine malate alone: ARB at its ED30 dose. The method, then: (§1) (S)-amlodipine malate and seven ARBs (candasartan, eprosartan, irbesartan, losartan, olmesartan, telmisartan and valsartan) were evaluated. The study was conducted in three parts. Phase I evaluated the time-course of the hypotensive actions of all eight agents ([S]-amlodipine and the seven ARBs). In Phase II, the dose-responsive effects of [S]-amlodipine malate and the seven ARBs were evaluated individually. From this phase of the study, ED30 and ED50 doses of each of the seven ARBs were identified, defined as the dose that produced 30 or 50 percent of the hypotensive effect produced by a rapid i.v. injection (30 μg/kg) of sodium nitroprusside (NTP), a short-acting vasodilator. In Phase III, the dose response to [S]-amlodipine was evaluated in the presence and absence of the ED30 and ED50 dose of each of the seven ARBs, with the objective of comparing the extent to which each ARB, at its ED30 or ED50, shifted the dose-response curve of [S]-amlodipine to the left and thus, lowering the apparent ED50 of the calcium channel blocker.
(§2) Animals were anesthetized with thiobutabarbital sodium (Inactin®, 150 mg/kg, delivered i.p.), tracheotomized and placed on a thermostatically controlled heating pad (37-38° C.). The jugular vein and the carotid artery were cannulated with PE-50 tubing for drug administration and recording of cardiovascular parameters, respectively. Blood pressure was recorded from the carotid artery by means of a pressure transducer and heart rate was derived electronically from the blood pressure signal. The signal output derived electronically from the arterial pressure was analyzed with a digital computer. The software IOX-16 continuously recorded the data every 5 sec during the entire procedure for each rat. Raw arterial pressure (in mmHg) and heart rate (beats per min), as well as changes in these two parameters relative to baseline or pre-drug levels (for doses other than initial dose), both in raw units (mm Hg or beats per min [bpm]) and as percentage change from baseline were captured and analyzed. The animals were allowed to equilibrate for 15-20 min before any treatment.
(§3) Doses are expressed in terms of free active substance. Each treatment was administered in a volume of 1 mL/kg by slow (over 20-30 seconds) i.v. bolus for all test articles, in all three phases.
(§4) The data were reported as mean ±S.E.M. (standard error of the mean) from 3-5 rats per group. Raw arterial pressure (in mmHg) and heart rate (beats per min), as well as changes in these two parameters relative to baseline or pre-drug levels (for doses other than initial dose), both in raw units (mmHg or beats per min [bpm]) and as percentage change from baseline, were captured and analyzed.
(§5) ED30 and ED50 for each drug were defined as the dose causing a decline in arterial pressure corresponding to 30% and to 50%, respectively, of the maximal drop in blood pressure produced by fast bolus i.v. injection (30 μg/kg) of sodium nitroprusside.
Dose-response curves with (S)-amlodipine malate in the absence and presence of each of the seven ARBs at its ED30 are shown in FIGS. 1A and 1B. The data shown in the figures are from experiments in which ED30 doses of each of the ARBs was combined with (S)-amlodipine malate. These were chosen because ED30 doses were obtainable by direct interpolation of dose response curves from Phase II. For several of the ARBs, doses corresponding to ED50 were obtained from extrapolation of their dose response curves.

The subject of experiment [2] is rats. In words: Phase II: dose-response of hypotensive effect, ED30/ED50 relative to sodium nitroprusside. The method, then: as §1, §2, §3, §4, §5
In this phase, the hypotensive response to sodium nitroprusside (NTP, 30 μg/kg, i.v. bolus), which was injected once at the end of the equilibration period, was used as a comparator and ED30 and ED50 doses were estimated as the percentage of the maximum NTP effect.

The test system of experiment [3] is rats. As to conditions: anesthetized rats, 100 μg/kg i.v. The method, then:
as §1
as §2, with “The animals were allowed to equilibrate for 15-20 min before any treatment.” left out

The mark [4] stands for this setting: i.v., anesthetized rats, from dose-response curve.

For the compound `CCCCC1=NC2(CCCC2)C(=O)N1Cc1ccc(-c2ccccc2-c2nnn[nH]2)cc1` [Irbesartan, 2-butyl-3-[[2′-(1H-tetrazol-5-yl)[1,1′-bephenyl]-4-yl]methyl]-1,3-diazaspiro[4,4]non-1-en-4-one], the “Potential Dosage Adjustment (%) of (S)-amlodipine malate (adjustment factor)” value (shortened to “Potential Dosage Adjustment (%)”) in the experiment with rats [1] is recorded as 23%.

Turning to `CCCCC(=O)N(Cc1ccc(-c2ccccc2-c2nnn[nH]2)cc1)[C@H](C(=O)O)C(C)C` [Valsartan, N-(1-oxopentyl)-N-[[2′-(1H-tetrazol-5-yl)[1,1′-biphenyl]-4-yl]methyl]-L-valine], in the experiment on rats [1], the “dose response curve of ARB plus (S)-amlodipine malate relative to (S)-amlodipine malate alone” value is given as “greatest leftward shift” and the “Potential Dosage Adjustment (%)” value is 32%. Besides, the “ED30 (dose causing 30% of the maximal drop in blood pressure produced by sodium nitroprusside)” value in the experiment on rats [2] (setting [4]) turned out to be 0.229 mg/kg. For the same compound, in the experiment on rats [3], the “time to maximum hypotensive effect post-injection” value is reported as “five”.

On to `CCCCc1nc(Cl)c(CO)n1Cc1ccc(-c2ccccc2-c2nnn[nH]2)cc1` [Losartan, 2-butyl-4-chloro-1-[[2′-(1H-tetrazol-5-yl)[1,1′-biphenyl]-4-yl]methyl]-1H-imidazole-5-methanol], for which, in the experiment with rats [1], the “Potential Dosage Adjustment (%)” value was 15%.

Take `CCOc1nc2cccc(C(=O)O)c2n1Cc1ccc(-c2ccccc2-c2nnn[nH]2)cc1` [Candasartan, 2-ethoxy-1-[[2′-(1H-tetrazol-5-yl)[1,1′-biphenyl]-4-yl]methyl]-1H-benzimidazole-7-carboxylic acid]: in the experiment on rats [1], the “dose response curve of ARB plus (S)-amlodipine malate relative to (S)-amlodipine malate alone” value is given as “offset”. The “decline in MBP at the next higher dose” value in the experiment on rats [2] (300 mg/kg i.v. (so in the source)) is reported as “no further decline”. Also, the “ED30 (dose causing 30% of the maximal drop in blood pressure produced by sodium nitroprusside)” value in the experiment on rats [2] (setting [4]) came to 0.008 mg/kg.

`CCCCc1ncc(/C=C(\Cc2cccs2)C(=O)O)n1Cc1ccc(C(=O)O)cc1` [Eprosartan, (E)-α-[[2-butyl-1-[(4-carboxyphenyl)methyl]-1H-imidazol-5-yl]methylene]-2-thiophenepropanoic acid]: in the experiment with rats [1], the “Potential Dosage Adjustment (%)” value amounted to 24%.

`CCOC(=O)C1=C(COCCN)NC(C)=C(C(=O)OC)[C@@H]1c1ccccc1Cl.O=C(O)C[C@H](O)C(=O)O` [(S)-amlodipine malate]: the “ED50 of (S)-amlodipine malate in the absence of an ARB” value in the experiment with rats [1] (i.v., anesthetized rats, Phase III) turned out to be 0.092 mg/kg. Besides, in the experiment with rats [2] (setting [4]), the “ED30 (dose causing 30% of the maximal drop in blood pressure produced by sodium nitroprusside)” value came to 0.056 mg/kg and the “ED50 (dose causing 50% of the maximal drop in blood pressure produced by sodium nitroprusside), estimated” value is 0.11 mg/kg. In the experiment on rats [3], the “maximum decrease in blood pressure” value was 14-17 mmHg and the “time to maximum hypotensive effect post-injection” value is 35 to 55 min.

Take `CCCc1nc2c(C)cc(-c3nc4ccccc4n3C)cc2n1Cc1ccc(-c2ccccc2C(=O)O)cc1` [Telmisartan, 4′-[(1,4′-dimethyl-2′-propyl[2,6′-bi-1H-benzimidazol]-1′-yl)methyl]-[1,1′-biphenyl]-2-carboxylic acid]: in the experiment on rats [1], the “dose response curve of ARB plus (S)-amlodipine malate relative to (S)-amlodipine malate alone” value was “offset”.
